Laboratory results taken from publication PMC5444710, “Enhancement of radiosensitivity by the novel anticancer quinolone derivative vosaroxin in preclinical glioblastoma models” (Oncotarget, 2017).

Experiments:
A172 glioma cell line = assay: Inhibition of proliferation (cell viability); format: cell-based; conditions: Homo sapiens, A 172
Method: (§1) Cells were seeded at a density of 2 × 10^4 cells/mL in 24-well plates. Cells were […] to attach and grow in 5% fetal bovine serum in DMEM for 24 hours. Cells were treated with different doses of radiation or temozolomide and then maintained in the appropriate culture conditions. At the conclusion of the treatment period, cells were trypsinized and resuspended in 1.0 mL of saline; viable cells were counted using the NucleoCounter^TM NC-100 (Chemotec, […], Denmark). All experiments were conducted in triplicate. IC50 values were calculated using GraFit (Erithacus Software Limited, Staines, UK).

D54 glioma cell line = assay: Inhibition of proliferation (cell viability); format: cell-based; conditions: Homo sapiens
Method: as §1

U87MG glioma cell line = assay: Inhibition of proliferation (cell viability); format: cell-based; conditions: Homo sapiens, U-87 MG
Method: as §1

U373 glioma cell line = assay: Inhibition of proliferation (cell viability); format: cell-based; conditions: Homo sapiens, U373 MG
Method: as §1

SNB19 glioma cell line = assay: Inhibition of proliferation (cell viability); format: cell-based; conditions: Homo sapiens, SNB-19
Method: as §1

SF268 glioma cell line = assay: Inhibition of proliferation (cell viability); format: cell-based; conditions: Homo sapiens, SF-268
Method: as §1

LN229 glioma cell line = assay: Inhibition of proliferation (cell viability); format: cell-based; conditions: Homo sapiens, LN-229
Method: as §1

LN18 glioma cell line = assay: Inhibition of proliferation (cell viability); format: cell-based; conditions: Homo sapiens, LN-18
Method: as §1

U118 glioma cell line = assay: Inhibition of proliferation (cell viability); format: cell-based; conditions: Homo sapiens
Method: as §1

beclin-1 = assay: Beclin-1 expression (Western blot and ELISA); format: cell-based, human; conditions: after vosaroxin treatment at IC20; U87MG, U251, T98G
Method: Cells grown in 90 mm diameter Petri dishes were treated and at various timepoints were washed with cold phosphate-buffered saline (PBS) and immediately lysed with 1 mL radioimmunoprecipitation assay (RIPA) buffer containing protease and phosphatase inhibitor cocktail. Total lysates were electrophoresed in SDS-PAGE (7%), and separated proteins transferred to nitrocellulose and probed with the appropriate antibodies using the conditions recommended by the suppliers. Protein levels in total extracts were normalized to actin. After appropriate treatments, tumor cell cultures and tissues were harvested for analysis of cytokine expression. Cell pellets were washed with PBS and lysed with RIPA buffer. Cell lysates and conditioned media were assayed by ELISA to measure (i) active human caspase-3 (CBA045, Merck Chemicals Ltd., Nottingham, UK), (ii) beclin-1 (E98557Hu, USCN Life Sciences, Houston, TX, USA), and (iii) DNA damage (EpiQuik in situ DNA Damage Assay Kit, Epigentek, Farmingdale, NY, USA).

A172 cells = assay: Clonogenic survival assay; format: cell-based, human
Method: (§2) For clonogenic survival assays, exponentially growing cells (70% confluence) were cultured in regular media and treated with vosaroxin, at the appropriate concentrations, or vehicle (final dimethyl sulfoxide concentration of 0.1%) for 48 hours. Tumor cells were then irradiated at room temperature with increasing doses of radiation (0–6 Gy) using an x-ray linear accelerator (dose rate of 200 cGy/min). Nonirradiated controls were handled identically to the irradiated cells with the exception of the radiation exposure. […] […] Colonies containing more than 50 cells were counted. The plating efficiency was calculated as the number of colonies observed divided by the number of cells plated. The surviving fraction was calculated as the number of colonies formed in the treated dishes compared with the number formed in the control. The survival curves were analyzed using SPSS statistical software (Chicago, IL, USA) by means of a fit of the data by a weighted, stratified, linear regression, according to the linear-quadratic formula: S(D)/S(O) = exp-(αD + βD2). The cell survival enhancement ratio was calculated as the ratio of the mean inactivation dose under control conditions divided by the mean inactivation dose after treatment as previously described.

U87MG cells = assay: Clonogenic survival assay; format: cell-based, human
Method: as §2

T98G cells = assay: Clonogenic survival assay; format: cell-based, human
Method: as §2

U251 cells = assay: Clonogenic survival assay; format: cell-based, human
Method: as §2

U251 xenografts = assay: Cytokine expression in xenograft tissue extracts (ELISA); format: in vivo, female CD1-nu/nu mice; conditions: U251 xenograft tissue extract
Method: (§3) After appropriate treatments, tumor cell cultures and tissues were harvested for analysis of cytokine expression. Cell pellets were washed with PBS and lysed with RIPA buffer. Cell lysates and conditioned media were assayed by ELISA to measure (i) active human caspase-3 (CBA045, Merck Chemicals Ltd., Nottingham, UK), (ii) beclin-1 (E98557Hu, USCN Life Sciences, Houston, TX, USA), and (iii) DNA damage (EpiQuik in situ DNA Damage Assay Kit, Epigentek, Farmingdale, NY, USA). Tumor extracts were analyzed for the presence of:
(§4) • MMP-2 (KHC3081) • TNF-α (KHC3011, Life Technologies Italia, Monza, Italy) • CXCR4 (Cyto Glow CXCR4 [pSer339], cell-based ELISA, Assay Biotech, Sunnyvale, CA, USA) • Human Fas ligand (ELH-FASL, RayBiotech, Norcross, GA, USA) • IL-6 (orb50052) and survivin (orb50135) (Biorbyt) • TGF-β1 (Quantikine ELISA Kit, DB100B, R&D Systems, Minneapolis, MN, USA) • SDF-1α (Human CXCL12/SDF-1α Quantikine ELISA Kit, DSA00, R&D Systems) • Mouse IL-10 DuoSet ELISA DY417 (R&D Systems Minneapolis, MN, USA) • Mouse NOS2 / iNOS ELISA Kit (Sandwich ELISA) - LS-F12166 (LifeSpan Biosciences, Inc, Seattle, WA, USA) • Mouse ARG1 / Arginase-1 ELISA Kit (Sandwich ELISA) - LS-F10883 (LifeSpan Biosciences, Inc, Seattle, WA, USA)
All determinations were performed in triplicate, according to manufacturers’ instructions. Data are presented as mean ± SE. Cytokine secretion determined by ELISA was normalized to total protein concentration in tissue lysates.

[1] = test system: U87MG, U251, and T98G xenografts; assay: iNOS and arginase-1 expression in xenograft tissue extracts; format: in vivo, female CD1-nu/nu mice; conditions: tissue extracts from U87MG
Method: as §3, §4

[2] = concentration equal to IC20, analyzed at 21 days of culture
[3] = irradiated 2, 4, 6 Gy 48 hours after drug exposure, calculated at a surviving fraction of 0.10

`CN[C@H]1CN(c2ccc3c(=O)c(C(=O)O)cn(-c4nccs4)c3n2)C[C@@H]1OC` [vosaroxin] was tested, and the IC50 (A172 glioma cell line) was 125 ± 89.4 nM, the IC50 (D54 glioma cell line) was 190 ± 25.4 nM and the IC20 (U87MG glioma cell line) was 65 nM. The IC50 (U87MG glioma cell line) was 141 ± 84.7 nM, the IC50 (U373 glioma cell line) was 78.4 ± 9.7 nM and the IC50 (SNB19 glioma cell line) was 35.5 ± 7 nM. The IC50 (SF268 glioma cell line) was 50.3 ± 12 nM, the IC50 (LN229 glioma cell line) was 12.8 ± 2.3 nM and the IC50 (LN18 glioma cell line) was 90 ± 12.5 nM. For the same compound, the IC50 (U118 glioma cell line) was 88.5 ± 16.7 nM, the “RT-induced levels of beclin-1” value (beclin-1) was “significantly reduced” and the “surviving fraction, vosaroxin alone” value (A172 cells; [2]) was 0.87 ± 0.18. For the same compound, the dose enhancement factor (A172 cells; [3]) was 1.24, the “surviving fraction, vosaroxin alone” value (U87MG cells; [2]) was 0.77 ± 0.18 and the dose enhancement factor (U87MG cells; [3]) was 1.55. The “surviving fraction, vosaroxin alone” value (T98G cells; [2]) was 0.84 ± 0.036, the dose enhancement factor (T98G cells; [3]) was 1.40 and the “surviving fraction, vosaroxin alone” value (U251 cells; [2]) was 0.80 ± 0.064. For the same compound, the dose enhancement factor (U251 cells; [3]) was 1.33, the “Human IL-6” value (U251 xenografts) was 33 ± 8 pg/mg tissue and the “Human TGF-β1” value (U251 xenografts) was 35 ± 6. The “Human TNF-α” value (U251 xenografts) was 7 ± 1 pg/mg tissue, the “Human and mouse IL-8” value (U251 xenografts) was 275 ± 35 pg/mg tissue and the “Mouse IL-1β” value (U251 xenografts) was 44 ± 5 pg/mg tissue. For the same compound, the “Mouse IL-10” value (U251 xenografts) was 5.2 ± 0.6, the “Mouse SDF-1α” value (U251 xenografts) was 32 ± 3 and the “arginase-1 expression (M2 marker)” value [1] was “low expression”. The “iNOS expression (M1 marker)” value [1] was “high expression”.
